# According to article PMC12044245 (Emerging Infectious Diseases, 2025):
# Tests used:
# [1] = molecular target: NA (neuraminidase) of A/Yamagata/103/2024 (Influenza A virus, UniProt C3W5S3); type: biochemical
# [2] = molecular target: NA (neuraminidase) of A/Yamagata/333/2023 (Influenza A virus, UniProt C3W5S3)
# [3] = system: recombinant A/WSN/33(H1N1) with PA I38N substitution; conditions: ref [3],[9]; cited from earlier work
# [4] = system: recombinant A/Victoria/3/75(H3N2) with PA I38N substitution; conditions: ref [3],[9]; cited from earlier work
Structure (SMILES),IC50 [1] [nM],IC50 [2] [nM],fold reduction in baloxavir susceptibility conferred by PA I38N substitution [3] [fold],fold reduction in baloxavir susceptibility conferred by PA I38N substitution [4] [fold]
"CCC(CC)[C@H](NC(C)=O)[C@@H]1[C@H](O)[C@@H](C(=O)O)C[C@H]1N=C(N)N [Peramivir, peramivir]",0.11,0.08,,
"O=C1c2c(O)c(=O)ccn2N([C@@H]2c3ccccc3SCc3c2ccc(F)c3F)[C@@H]2COCCN12 [Baloxavir, baloxavir acid]",,,24,10
